One block for each molecule: values may come before it.
Tests used:
ALDH1 [1] = assay: Identification of positive ALDH1 cells by flow cytometry via resorufin propionate; type: cell-based; settings: 15 μM Dimate, 5 hours, FIG. 4
Procedure: In a 60 mm Petri dish, 500.000 cells were incubated with RPMI-1640 medium supplemented with L-Glutamine, Penicillin, Streptomycin and 10% Fetal Calf Serum overnight at +37° C. with 5% atmosphere. CO2. For the negative control, the cells were taken up in medium supplemented with 15 μM of dimethyl ampal thiolester (Dimate), a specific inhibitor of ALDH1 and 3, then incubated for 5 hours at 37° C., 5% CO2. After trypsination, the cells were taken up in supplemented RPMI medium and centrifuged at 800 g for 5 minutes. The cell pellet was then taken up in fresh supplemented medium containing 10 μM of resorufin propionate, and then incubated for 1 hour in a polycarbonate tube at 37° C., 5% CO2. After incubation, the cells were then centrifuged and then washed in cold PBSx1 and finally taken up in […] of cold PBSx1. The solution was then analyzed by flow cytometry ([…] or red laser).

ALDH1A1 [2] = target: T1, ALDH1A1 (Homo sapiens, UniProt P00352); assay: Double localization of resorufin propionate and ALDH1A1 by fluorescent microscopy (NCI-H522 cells); type: cell-based; settings: results not shown
T1 construct: purchased R&D Systems 5869-DH
T1 sequence (P00352 1-501): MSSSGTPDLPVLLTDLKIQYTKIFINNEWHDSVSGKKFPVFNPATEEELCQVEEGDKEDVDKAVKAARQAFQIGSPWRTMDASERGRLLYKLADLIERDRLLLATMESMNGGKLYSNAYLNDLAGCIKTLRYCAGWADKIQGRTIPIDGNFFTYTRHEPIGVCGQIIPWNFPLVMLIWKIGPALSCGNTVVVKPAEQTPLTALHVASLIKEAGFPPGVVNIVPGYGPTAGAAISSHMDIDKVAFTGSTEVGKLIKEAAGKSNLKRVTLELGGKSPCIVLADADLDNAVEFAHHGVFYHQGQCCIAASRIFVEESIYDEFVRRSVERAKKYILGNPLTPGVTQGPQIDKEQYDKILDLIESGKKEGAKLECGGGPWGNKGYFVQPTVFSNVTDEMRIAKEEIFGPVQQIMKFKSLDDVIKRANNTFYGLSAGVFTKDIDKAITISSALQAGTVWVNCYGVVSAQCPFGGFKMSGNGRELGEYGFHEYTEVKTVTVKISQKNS
Procedure: In a 24-well plate with microscope glasses previously washed with ethanol and then placed in the wells, the NCI-H522 cells were added at a cell concentration of 50.000 cells/well and then incubated in RPMI-1640 medium supplemented with L-Glutamine, Penicillin, Streptomycin and 10% Fetal Calf Serum overnight at +37° C. with a 5% CO2 atmosphere. The next day, the culture medium was changed with either DIMATE (5 μM) or the treatment vehicle and incubated for 6 hours. The cells were incubated for 30 minutes with culture medium supplemented with 10 μM of resorufin propionate, were then washed with cold PBS and then fixed with paraformaldehyde for 15 minutes at 37° C. The cells were permeabilized and saturated with PBS; 3% bovine albumin; 0.3% triton for 1 hour. The incubation was carried out with the anti-ALDH1A1 antibody (R&D System, MAB5869) for 1 hour at +37° C., then with an anti-mouse antibody coupled to fluorescein for 1 hour at room temperature in the dark, with PBS washes between the two steps. 3 washes with PBS were carried out then the microscopy glasses were mounted with an anti-decoloration support supplemented with DAPI. The cells were then observed under a microscope.

ALDH1 [3] = assay: ALDH1 activity by resorufin propionate after treatment with inhibitors of ALDH 1 and 3 (HL-60 cells); type: cell-based; settings: inhibitor 8 μM, 6 hours, substrate 10 μM, one hour, P<0.001, FIG. 3
Procedure: In a 96-well plate, the HL-60 cells were inoculated at a concentration of 50.000 cells/well in RPMI-1640 medium without phenol red supplemented with L-Glutamine, Penicillin, Streptomycin and 10% Fetal Calf Serum (FCS) supplemented with dimethyl ampalthiolester (DIMATE) a specific inhibitor ALDH 1 and 3, morpholino ampal thiolester (MATE) a specific inhibitor of ALDH3, at concentrations of 8 μM respectively. After incubation for 6 hours, the substrates of the different ALDHs respectively resorufine propionate for ALDH1 and resorufin 4-diethylaminobenzoate for ALDH3, were added to a final concentration of 10 μM and then incubated for one hour at +37° C. The plate was then read using an Appliskan fluorescent plate reader (ex=560 nm, Em=600). The data were expressed in relative fluorescence units produced by an equal number of cells.

ALDH1A1 [4] = target: T1, ALDH1A1; assay: ALDH1 activity by resorufine propionate after treatment with interfering RNA ALDH1A1 (NCI-H522 cells); type: cell-based; settings: 100 nM of siRNA, 10 μM resorufin propionate, P<0.05, FIG. 2
Procedure: In a 60 mm Petri dish, the NCI-H522 cells were seeded at a concentration of 250.000 cells/plate, corresponding to a confluence of 40-50%, in RPMI-1640 medium supplemented with L-Glutamine, Penicillin, Streptomycin and 10% Fetal Calf Serum (FCS) overnight at 37° C. The next day, the medium was replaced by the same medium without FCS. The transfection solution was then prepared by diluting 100 nM in 500 μL of culture medium without FCS, to which 500 μL of culture medium without FCS supplemented with 3 μL of lipofectamine 2000 (Invitrogen) was added. The solution was then incubated for 30 minutes at room temperature and then drops added to the cell solution. The mixture was incubated at +37° C. in a 5% CO2 incubator for 8 hours. […] The specific activity of ALDH1A1 was then assayed by fluorescence.
The cells were inoculated at a concentration of 1×10^4 cells/well in a 96-well plate in 100 μl in RPMI-1640 medium without phenol red supplemented with L-Glutamine, Penicillin, Streptomycin and 10% Fetal Calf Serum (FCS) supplemented with 10 μM resorufin propionate. The cells were then incubated for 1 hour and then the plate was read using an Appliskan fluorescent plate reader (ex=560 nm, Em=600). The data were expressed in relative fluorescence units produced by an equal number of cells.

ALDH1A1 [5] = target: T1, ALDH1A1; assay: Determination of the Km and Vmax of resorufine propionate with purified ALDH1A1; type: biochemical; settings: column ALDH1; relative to ALDH1
Procedure: (§1) In 50 μl of 0.1 M phosphate buffer pH6.00; 0.2 M KCl; 2 mM NADP+; 2 mM EDTA, a range of resorufine propionate was made: 250, 200, 150, 125, 100, 90, 80 and 70 μM and 0 μM. 50 μL of recombinant enzyme solution at 2.5 mU/well ALDH1A1 (R&D Sytems, 5869-DH), ALDH2 (abcam, ab87415) and ALDH3A1 (R&D Sytems, 6705-DH) was added. The incubation was carried out for 30 minutes at +37° C. and then the fluorescence reading was made (Em: 590 nm, Ex: 530 nm). The data were then converted to resorufin released (nM·min-1.μg^−1) and Km and Vmax were calculated using the Michaelis-Menten equation using GraphPad Prism 5.0.

ALDH3A1 = target: T2, ALDH3A1 (Homo sapiens, UniProt P30838); assay: Determination of the Km and Vmax of resorufine propionate with purified ALDH3A1; type: biochemical; settings: column ALDH3
T2 construct: purchased R&D Systems 6705-DH
T2 sequence (P30838 1-453): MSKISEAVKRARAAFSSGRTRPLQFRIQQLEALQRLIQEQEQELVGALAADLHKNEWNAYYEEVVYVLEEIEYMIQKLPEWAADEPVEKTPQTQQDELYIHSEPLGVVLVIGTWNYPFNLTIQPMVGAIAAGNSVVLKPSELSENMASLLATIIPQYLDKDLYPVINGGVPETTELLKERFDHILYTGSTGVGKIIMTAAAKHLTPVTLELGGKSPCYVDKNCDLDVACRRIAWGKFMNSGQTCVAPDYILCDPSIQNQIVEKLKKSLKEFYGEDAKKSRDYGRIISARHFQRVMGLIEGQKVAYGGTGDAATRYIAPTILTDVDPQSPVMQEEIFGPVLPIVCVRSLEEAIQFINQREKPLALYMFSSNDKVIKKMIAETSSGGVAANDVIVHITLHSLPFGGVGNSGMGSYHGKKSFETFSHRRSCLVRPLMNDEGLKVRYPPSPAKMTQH
Procedure: as §1

ALDH2 = target: T3, ALDH2 (Homo sapiens, UniProt P05091); assay: Determination of the Km and Vmax of resorufine propionate with purified ALDH2; type: biochemical; settings: column ALDH2; relative to ALDH1
T3 construct: purchased abcam ab87415
T3 sequence (P05091 18-517): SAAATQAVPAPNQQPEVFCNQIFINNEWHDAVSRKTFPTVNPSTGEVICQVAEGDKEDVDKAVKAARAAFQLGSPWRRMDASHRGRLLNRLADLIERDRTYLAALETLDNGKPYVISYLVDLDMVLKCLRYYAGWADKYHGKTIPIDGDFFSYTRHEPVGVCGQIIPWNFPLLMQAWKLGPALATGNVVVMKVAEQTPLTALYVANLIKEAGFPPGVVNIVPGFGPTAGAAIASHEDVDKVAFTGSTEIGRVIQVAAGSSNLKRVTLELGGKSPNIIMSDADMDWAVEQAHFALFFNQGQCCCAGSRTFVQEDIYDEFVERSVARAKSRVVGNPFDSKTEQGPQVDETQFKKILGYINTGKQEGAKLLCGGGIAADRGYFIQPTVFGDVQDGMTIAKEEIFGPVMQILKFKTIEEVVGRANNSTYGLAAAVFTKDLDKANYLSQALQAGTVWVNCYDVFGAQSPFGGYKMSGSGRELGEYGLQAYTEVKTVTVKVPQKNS
Procedure: as §1

[6] = substrate: CCC(=O)Oc1ccc2nc3ccc(=O)cc-3oc2c1; assay: Determination of the Km and Vmax of resorufine propionate with purified ALDH1A1; type: biochemical; settings: other: column ALDH1; substrate range 70-250 μM; pH 6.0; 37.0 °C
Procedure: as §1

[7] = substrate: CCC(=O)Oc1ccc2nc3ccc(=O)cc-3oc2c1; assay: Determination of the Km and Vmax of resorufine propionate with purified ALDH2; type: biochemical; settings: other: column ALDH2; substrate range 70-250 μM; pH 6.0; 37.0 °C
Procedure: as §1

Molecule: CSC(=O)C#CC(C)(C)N(C)C [DIMATE, dimethyl ampalthiolester]
positive ALDH1 cells (living cells), flow cytometry (ALDH1 [1]; 10 μM resorufin propionate): positive ALDH1 cell inhibition is observed
viability (ALDH1 [1]; Calcein-AM): decrease in viability
conversion of resorufin propionate to resorufin, fluorescent microscopy (ALDH1A1 [2]; DIMATE 5 μM, 6 hours): inhibited
inhibition of fluorescence (resorufin propionate signal) (ALDH1 [3]): significant inhibition of fluorescence

Molecule: CCCCCCCC(=O)Oc1ccc2c(c1)Oc1cc(OC(=O)CCCCCCC)ccc1C21OC(=O)c2ccccc21 [Fluorescein octanoate, Fluorescein dioctanoate]
melting point: 50 to 52 °C

B1: ALDH1A1 (Homo sapiens) (protein)
chain: T1 sequence (P00352 1-501)
notes: purchased R&D Systems 5869-DH
Km [6]: 115 µM
Vmax [6]: 12132 nM/min/µg

B2: ALDH2 (Homo sapiens) (protein)
chain: T3 sequence (P05091 18-517)
notes: purchased abcam ab87415
Km [7]: 116 µM
Vmax [7]: 6693 nM/min/µg

Results, then the molecule that gave them:

melting point: 103 to 105 °C
Molecule: CCCCCC(=O)Oc1ccc2c(c1)Oc1cc(OC(=O)CCCCC)ccc1C21OC(=O)c2ccccc21 [Fluorescein di-hexanoate]

melting point: 145 to 150 °C (dec.)
Molecule: CC1=C(/C=C/C(C)=C/C=C/C(C)=C/C(=O)Oc2ccc3c(c2)Oc2cc(OC(=O)/C=C(C)/C=C/C=C(C)/C=C/C4=C(C)CCCC4(C)C)ccc2C32OC(=O)c3ccccc32)C(C)(C)CCC1 (centres unmarked) [Fluorescein di-retinoate]

signal resorufine propionate after ALDH1A1 siRNA (ALDH1A1 [4]): decrease significant
Increase (ALDH1A1 [5]): 1
colocalization of fluorescent signal with ALDH1A1 (ALDH1A1 [2]; 10 μM resorufin propionate, 30 minutes): can be colocalized with ALDH1A1
Increase (ALDH3A1; relative to ALDH1): 0.17
Km (ALDH3A1; substrate range 70-250 μM): 445 µM
Increase (ALDH2): 0.54
Molecule: CCC(=O)Oc1ccc2nc3ccc(=O)cc-3oc2c1 [resorufine propionate, Resorufine propionate]

— patent US11519014B2, “Specific substrate of an ALDH isoenzyme” (ADVANCED BIODESIGN, priority 2016, dated 2022)
